Source: ChEMBL document CHEMBL1133425, “Synthesis and dopaminergic activity of heterocyclic analogues of 5,6-dihydroxy-2-aminotetralins” (2000)

Key:
Oryctolagus cuniculus [1] = organism: Oryctolagus cuniculus; assay: D1-like activity was evaluated as pD2 on a superfused rabbit splenic artery; assay type: functional
Oryctolagus cuniculus [2] = organism: Oryctolagus cuniculus; assay: D2-like activity was evaluated as pD2 on a superfused rabbit ear artery; assay type: functional

CCCN(CCCCCCNCCc1ccc(S(C)(=O)=O)cc1)C1CCc2ncccc2C1 (centres undefined) was tested, and the pD2 (Oryctolagus cuniculus [1]) was <5 and the pD2 (Oryctolagus cuniculus [2]) was 8.4.

For CCCN(CCCCCCNCCc1ccc(S(C)(=O)=O)cc1)C1CCc2[nH]ccc2C1 (centres undefined), the pD2 (Oryctolagus cuniculus [1]) was <5.

In the case of CS(=O)(=O)c1ccc(CCNCCCCCCNCCc2cc[nH]c2)cc1, the pD2 (Oryctolagus cuniculus [1]) is reported as <5.

With CS(=O)(=O)c1ccc(CCNCCCCCCNCCc2cccnc2)cc1 the pD2 (Oryctolagus cuniculus [1]) was <5 and the pD2 (Oryctolagus cuniculus [2]) was 5.5.

CCCN(CCCCCCNCCc1ccc(S(C)(=O)=O)cc1)C1CCc2nc(N)sc2C1 (centres undefined) was tested, and the pD2 (Oryctolagus cuniculus [1]) was 6.3 and the pD2 (Oryctolagus cuniculus [2]) was 8.4.

For CCCN(CCCCCCN(CCC)CCc1cccnc1)CCc1ccc(S(C)(=O)=O)cc1, the pD2 (Oryctolagus cuniculus [1]) was 5.5 and the pD2 (Oryctolagus cuniculus [2]) was <6.

CS(=O)(=O)c1ccc(CCNCCCCCCNC2CCc3ncccc3C2)cc1 (centres undefined) was tested, and the pD2 (Oryctolagus cuniculus [1]) was <5 and the pD2 (Oryctolagus cuniculus [2]) was 6.3.

In the case of CS(=O)(=O)c1ccc(CCNCCCCCCNC2CCc3[nH]ccc3C2)cc1 (centres undefined), the pD2 (Oryctolagus cuniculus [1]) is reported as <5 and the pD2 (Oryctolagus cuniculus [2]) is reported as <6.

In the case of CCCN(CCC)C1CCc2c(ccc(O)c2O)C1 (centres undefined), the pD2 (Oryctolagus cuniculus [1]) is reported as 6.5 and the pD2 (Oryctolagus cuniculus [2]) is reported as 9.8.

Work on CCCN(CCCCCCNCCc1ccc(S(C)(=O)=O)cc1)[C@H]1CCc2c(ccc(O)c2O)C1 yielded a pD2 (Oryctolagus cuniculus [1]) of 8.6 and a pD2 (Oryctolagus cuniculus [2]) of 10.1.

CCCN(CCCCCCN(CCC)C1CCc2nc(O)ccc2C1)CCc1ccc(S(C)(=O)=O)cc1 (centres undefined) was tested, and the pD2 (Oryctolagus cuniculus [1]) was <5.
